From ChEMBL document CHEMBL1201862, “PubChem BioAssay data set” (2004)
Calls of active or inactive are those of the source.

What was measured:
Format in all cases: functional
[1] = biological target: Proto-oncogene tyrosine-protein kinase ROS (Homo sapiens, UniProt P08922);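 note: ROS1 tested as one member of a kinome-wide kinase panel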
[2] = biological target: Serine/threonine-protein kinase Nek4 (Homo sapiens, UniProt P51957)
[3] = biological target: Ribosomal protein S6 kinase alpha-3 (Homo sapiens, UniProt P51812);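 note: measured within a kinome-wide profiling panel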
[4] = biological target: Proto-oncogene tyrosine-protein kinase receptor Ret (Homo sapiens, UniProt P07949);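 note: measured within a kinome-wide profiling panel, RET as the panel member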
[5] = biological target: Cell division cycle 7-related protein kinase (Homo sapiens, UniProt O00311);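 note: value obtained from a kinome-wide kinase panel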
[6] = biological target: Insulin-like growth factor 1 receptor (Homo sapiens, UniProt P08069); assay: Navigating the Kinome. Panel member name: IGF1R
Insulin-like growth factor 1 receptor, sequence (P08069 31-736 limits assumed): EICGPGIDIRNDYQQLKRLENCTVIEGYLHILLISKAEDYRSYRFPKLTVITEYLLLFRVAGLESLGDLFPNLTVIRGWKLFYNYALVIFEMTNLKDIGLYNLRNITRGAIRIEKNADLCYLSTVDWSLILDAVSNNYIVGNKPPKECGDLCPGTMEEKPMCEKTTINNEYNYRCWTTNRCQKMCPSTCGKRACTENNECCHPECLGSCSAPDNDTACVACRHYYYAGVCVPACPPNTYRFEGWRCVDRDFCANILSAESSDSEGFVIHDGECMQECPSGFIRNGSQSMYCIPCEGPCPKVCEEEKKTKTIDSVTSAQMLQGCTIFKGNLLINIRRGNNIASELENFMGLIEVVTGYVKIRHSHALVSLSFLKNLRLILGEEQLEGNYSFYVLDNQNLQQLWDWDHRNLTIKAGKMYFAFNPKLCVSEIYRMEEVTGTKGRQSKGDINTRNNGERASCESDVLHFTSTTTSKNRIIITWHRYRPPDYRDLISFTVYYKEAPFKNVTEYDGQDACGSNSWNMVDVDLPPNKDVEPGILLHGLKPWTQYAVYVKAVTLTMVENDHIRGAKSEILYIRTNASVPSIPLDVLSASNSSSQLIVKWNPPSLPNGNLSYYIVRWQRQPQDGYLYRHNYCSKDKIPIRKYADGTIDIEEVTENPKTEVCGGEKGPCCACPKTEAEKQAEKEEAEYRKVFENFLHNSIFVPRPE
Insulin-like growth factor 1 receptor, sequence (P08069 741-1367 limits assumed): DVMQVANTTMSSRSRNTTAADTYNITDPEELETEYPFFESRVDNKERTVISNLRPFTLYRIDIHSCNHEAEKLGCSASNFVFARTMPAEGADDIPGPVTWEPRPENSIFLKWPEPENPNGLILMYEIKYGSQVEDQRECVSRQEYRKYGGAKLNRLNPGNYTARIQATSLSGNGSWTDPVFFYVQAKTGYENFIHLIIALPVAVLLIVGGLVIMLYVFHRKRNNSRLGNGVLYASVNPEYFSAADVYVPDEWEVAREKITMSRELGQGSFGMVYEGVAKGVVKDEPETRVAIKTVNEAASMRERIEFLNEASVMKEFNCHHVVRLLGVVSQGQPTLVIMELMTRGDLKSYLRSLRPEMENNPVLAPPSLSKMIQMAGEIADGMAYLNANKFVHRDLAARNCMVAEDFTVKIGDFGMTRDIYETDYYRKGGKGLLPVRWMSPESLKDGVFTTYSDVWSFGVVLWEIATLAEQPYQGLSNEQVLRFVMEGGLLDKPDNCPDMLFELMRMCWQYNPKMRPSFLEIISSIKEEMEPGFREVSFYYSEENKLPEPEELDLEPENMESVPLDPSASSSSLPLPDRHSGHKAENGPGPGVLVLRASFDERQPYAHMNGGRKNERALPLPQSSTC

[7] = biological target: Tyrosine-protein kinase Srms (Homo sapiens, UniProt Q9H3Y6);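 note: SRMS measured as one member of a kinome-wide kinase profiling panel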
[8] = biological target: Ribosomal protein S6 kinase beta-1 (Homo sapiens, UniProt P23443);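 note: measured as one member of a kinome-wide profiling panel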
Ephrin type-A receptor 2 = Ephrin type-A receptor 2 (Homo sapiens, UniProt P29317);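 note: EPHA2 tested as one member of a kinome-wide kinase panel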
[9] = biological target: Serine/threonine-protein kinase D3 (Homo sapiens, UniProt O94806);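 note: determined within a kinase panel screen, with PRKCN as the panel member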
[10] = biological target: Serine/threonine-protein kinase TAO1 (Homo sapiens, UniProt Q7L7X3)
[11] = biological target: Vascular endothelial growth factor receptor 1 (Homo sapiens, UniProt P17948);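 note: measured within a kinome-wide profiling panel, FLT1 as the panel member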
[12] = biological target: Cyclin-dependent kinase 1 (Homo sapiens, UniProt P06493);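 note: Kinome-wide panel profiling, with the target listed as panel member CDC2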
Cyclin-dependent kinase 1, sequence (P06493 whole entry): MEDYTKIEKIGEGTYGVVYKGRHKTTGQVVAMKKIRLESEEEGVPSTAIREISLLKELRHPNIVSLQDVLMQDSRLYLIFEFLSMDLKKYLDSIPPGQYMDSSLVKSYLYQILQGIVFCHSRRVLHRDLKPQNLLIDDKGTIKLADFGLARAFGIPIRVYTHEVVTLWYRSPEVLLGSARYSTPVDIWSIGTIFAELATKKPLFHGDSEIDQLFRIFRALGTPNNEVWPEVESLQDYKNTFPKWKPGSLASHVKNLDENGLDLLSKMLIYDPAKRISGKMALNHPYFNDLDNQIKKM

[13] = biological target: Receptor tyrosine-protein kinase erbB-2 (Homo sapiens, UniProt P04626); assay: Navigating the Kinome. Panel member name: ERBB2
[14] = biological target: Dual specificity tyrosine-phosphorylation-regulated kinase 3 (Homo sapiens, UniProt O43781);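 note: measured as one member of a broad kinase panel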
[15] = biological target: Mitogen-activated protein kinase kinase kinase 20 (Homo sapiens, UniProt Q9NYL2)
[16] = biological target: Phosphorylase b kinase gamma catalytic chain, liver/testis isoform (Homo sapiens, UniProt P15735);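 note: PHKG2 measured as one member of a kinome-wide kinase panel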
[17] = biological target: Tyrosine-protein kinase ITK/TSK (Homo sapiens, UniProt Q08881);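 note: affinity for ITK measured as one member of a broad kinase panel profiling binding across the kinome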
[18] = biological target: Mitogen-activated protein kinase 8 (Homo sapiens, UniProt P45983);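 note: value comes from one member of a kinome-wide kinase profiling panel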
[19] = biological target: Testis-specific serine/threonine-protein kinase 1 (Homo sapiens, UniProt Q9BXA7)
[20] = biological target: 5'-AMP-activated protein kinase catalytic subunit alpha-1 (Homo sapiens, UniProt Q13131)
[21] = biological target: Serine/threonine-protein kinase DCLK1 (Homo sapiens, UniProt O15075);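 note: affinity for DCLK1 (listed as DCAMKL1) measured as one member of a kinome-wide kinase profiling panel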
[22] = biological target: Cyclin-dependent kinase 7 (Homo sapiens, UniProt P50613);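 note: value comes from a kinome-wide kinase profiling panel in which CDK7 is one member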
Cyclin-dependent kinase 7, sequence (P50613 whole entry): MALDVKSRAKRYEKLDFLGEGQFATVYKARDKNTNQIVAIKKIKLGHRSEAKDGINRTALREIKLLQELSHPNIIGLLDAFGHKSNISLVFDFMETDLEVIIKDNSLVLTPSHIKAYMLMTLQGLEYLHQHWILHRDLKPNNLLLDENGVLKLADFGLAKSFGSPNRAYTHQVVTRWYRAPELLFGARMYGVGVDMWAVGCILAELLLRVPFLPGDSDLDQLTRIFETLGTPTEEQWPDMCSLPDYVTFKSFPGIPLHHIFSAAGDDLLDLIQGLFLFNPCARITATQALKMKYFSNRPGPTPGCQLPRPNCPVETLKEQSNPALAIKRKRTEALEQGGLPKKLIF

[23] = biological target: Homeodomain-interacting protein kinase 2 (Homo sapiens, UniProt Q9H2X6);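 note: measured within a kinome-wide kinase profiling panel, HIPK2 being one panel member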
[24] = biological target: Interleukin-1 receptor-associated kinase 1 (Homo sapiens, UniProt P51617);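 note: IRAK1 tested as one member of a kinome panel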
[25] = biological target: MAP kinase-activated protein kinase 3 (Homo sapiens, UniProt Q16644);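 note: value comes from a kinome-wide profiling panel in which MAPKAPK3 is one of the panel members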
[26] = biological target: cAMP-dependent protein kinase catalytic subunit PRKX (Homo sapiens, UniProt P51817)
[27] = biological target: Serine/threonine-protein kinase BRSK1 (Homo sapiens, UniProt Q8TDC3);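 note: measured within a kinome-wide kinase panel, with the target listed as KIAA1811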
[28] = biological target: Serine/threonine-protein kinase 3 (Homo sapiens, UniProt Q13188);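 note: measured as one member of a kinome-wide kinase panel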
[29] = biological target: Lymphokine-activated killer T-cell-originated protein kinase (Homo sapiens, UniProt Q96KB5);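 note: value comes from a kinase panel screen in which TOPK was one of the panel members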
[30] = biological target: Maternal embryonic leucine zipper kinase (Homo sapiens, UniProt Q14680)
[31] = biological target: Serine/threonine-protein kinase PLK4 (Homo sapiens, UniProt O00444);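 note: PLK4 measured as one member of a kinome-wide kinase profiling panel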
[32] = biological target: Receptor tyrosine-protein kinase erbB-4 (Homo sapiens, UniProt Q15303);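 note: ERBB4 member of a kinome-wide kinase profiling panel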
[33] = biological target: MAP/microtubule affinity-regulating kinase 3 (Homo sapiens, UniProt P27448);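 note: MARK3 affinity measured as one member of a kinome panel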
[34] = biological target: ALK tyrosine kinase receptor (Homo sapiens, UniProt Q9UM73);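 note: ALK tested as one member of a kinase panel screen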
ALK tyrosine kinase receptor, sequence (Q9UM73 whole entry): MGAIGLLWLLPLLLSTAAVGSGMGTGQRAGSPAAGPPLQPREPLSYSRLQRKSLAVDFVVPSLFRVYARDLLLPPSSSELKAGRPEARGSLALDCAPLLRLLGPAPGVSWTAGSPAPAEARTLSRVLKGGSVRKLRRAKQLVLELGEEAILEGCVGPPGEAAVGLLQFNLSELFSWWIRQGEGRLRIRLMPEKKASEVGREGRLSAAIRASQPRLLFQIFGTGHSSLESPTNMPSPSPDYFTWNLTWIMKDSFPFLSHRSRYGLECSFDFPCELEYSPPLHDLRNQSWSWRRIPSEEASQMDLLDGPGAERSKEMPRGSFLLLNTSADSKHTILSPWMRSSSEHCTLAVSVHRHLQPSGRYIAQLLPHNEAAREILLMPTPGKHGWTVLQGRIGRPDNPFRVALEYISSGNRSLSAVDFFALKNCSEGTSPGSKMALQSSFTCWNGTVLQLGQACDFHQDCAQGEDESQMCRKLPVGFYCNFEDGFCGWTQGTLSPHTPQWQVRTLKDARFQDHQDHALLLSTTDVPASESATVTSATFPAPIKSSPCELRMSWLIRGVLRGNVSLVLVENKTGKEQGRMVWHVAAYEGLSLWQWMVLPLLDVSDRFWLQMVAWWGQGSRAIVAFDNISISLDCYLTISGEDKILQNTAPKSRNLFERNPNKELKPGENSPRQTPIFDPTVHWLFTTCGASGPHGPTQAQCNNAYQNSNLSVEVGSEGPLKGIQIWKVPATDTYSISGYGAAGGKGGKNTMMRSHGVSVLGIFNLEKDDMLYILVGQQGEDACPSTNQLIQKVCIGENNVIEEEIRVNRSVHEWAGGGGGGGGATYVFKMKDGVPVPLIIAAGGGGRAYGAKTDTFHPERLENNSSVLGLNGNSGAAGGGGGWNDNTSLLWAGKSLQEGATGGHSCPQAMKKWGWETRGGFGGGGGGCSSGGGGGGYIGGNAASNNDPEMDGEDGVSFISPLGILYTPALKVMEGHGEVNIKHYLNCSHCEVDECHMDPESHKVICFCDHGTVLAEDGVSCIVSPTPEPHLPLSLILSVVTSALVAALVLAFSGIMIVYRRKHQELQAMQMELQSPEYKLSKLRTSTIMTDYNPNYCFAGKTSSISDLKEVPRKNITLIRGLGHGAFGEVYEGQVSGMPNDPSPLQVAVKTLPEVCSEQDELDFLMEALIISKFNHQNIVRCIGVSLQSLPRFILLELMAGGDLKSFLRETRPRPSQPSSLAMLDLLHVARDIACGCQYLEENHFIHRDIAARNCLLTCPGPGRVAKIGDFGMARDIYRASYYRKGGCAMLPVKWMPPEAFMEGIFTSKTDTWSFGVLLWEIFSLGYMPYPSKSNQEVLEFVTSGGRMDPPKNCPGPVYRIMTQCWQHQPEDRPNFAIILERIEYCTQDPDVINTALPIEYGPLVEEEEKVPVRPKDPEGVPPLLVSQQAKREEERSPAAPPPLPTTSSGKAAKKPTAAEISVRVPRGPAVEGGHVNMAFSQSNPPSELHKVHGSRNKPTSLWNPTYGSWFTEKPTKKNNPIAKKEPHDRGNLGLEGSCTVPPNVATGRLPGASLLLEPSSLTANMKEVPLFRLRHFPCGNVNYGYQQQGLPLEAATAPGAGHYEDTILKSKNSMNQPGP

[35] = biological target: Calcium/calmodulin-dependent protein kinase type II subunit delta (Homo sapiens, UniProt Q13557)
[36] = biological target: Tyrosine-protein kinase Fer (Homo sapiens, UniProt P16591);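 note: FER tested as one member of a kinome panel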
[37] = biological target: Serine/threonine-protein kinase PAK 1 (Homo sapiens, UniProt Q13153)
Serine/threonine-protein kinase PAK 1, sequence (Q13153 whole entry, canonical isoform): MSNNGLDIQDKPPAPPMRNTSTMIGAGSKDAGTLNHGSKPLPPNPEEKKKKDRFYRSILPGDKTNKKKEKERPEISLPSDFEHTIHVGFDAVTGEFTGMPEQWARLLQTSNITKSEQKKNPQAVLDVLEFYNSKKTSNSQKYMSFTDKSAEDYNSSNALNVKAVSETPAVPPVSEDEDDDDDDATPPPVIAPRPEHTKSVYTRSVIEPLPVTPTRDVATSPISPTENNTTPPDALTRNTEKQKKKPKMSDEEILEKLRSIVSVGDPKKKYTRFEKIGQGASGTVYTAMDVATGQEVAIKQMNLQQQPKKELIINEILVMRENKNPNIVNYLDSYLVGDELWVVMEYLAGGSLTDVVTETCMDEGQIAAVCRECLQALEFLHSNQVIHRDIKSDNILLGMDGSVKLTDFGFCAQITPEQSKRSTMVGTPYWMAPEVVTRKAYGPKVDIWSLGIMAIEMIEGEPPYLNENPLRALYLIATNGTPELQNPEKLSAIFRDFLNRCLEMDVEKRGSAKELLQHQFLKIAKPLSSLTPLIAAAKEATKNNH

[38] = biological target: Casein kinase I isoform gamma-1 (Homo sapiens, UniProt Q9HCP0);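 note: measured as the CSNK1G1 member of a kinome profiling panel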
[39] = biological target: Serine/threonine-protein kinase PAK 4 (Homo sapiens, UniProt O96013);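 note: value obtained within a kinome profiling panel in which PAK4 was one of the panel members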
[40] = biological target: Fibroblast growth factor receptor 3 (Homo sapiens, UniProt P22607)
[41] = biological target: High affinity nerve growth factor receptor (Homo sapiens, UniProt P04629);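 note: NTRK1 tested as one member of a kinome-wide profiling panel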
[42] = biological target: MAP kinase-activated protein kinase 5 (Homo sapiens, UniProt Q8IW41);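 note: measured as one member of a kinome panel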
[43] = biological target: Tyrosine-protein kinase JAK2 (Homo sapiens, UniProt O60674);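 note: JAK2 tested as one member of a kinase panel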
[44] = biological target: Serine/threonine-protein kinase MRCK alpha (Homo sapiens, UniProt Q5VT25)
[45] = biological target: RAC-alpha serine/threonine-protein kinase (Homo sapiens, UniProt P31749);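 note: AKT1 affinity measured as one member of a kinome-wide kinase profiling panel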

Serine/threonine-protein kinase Nek4, sequence (P51957 whole entry): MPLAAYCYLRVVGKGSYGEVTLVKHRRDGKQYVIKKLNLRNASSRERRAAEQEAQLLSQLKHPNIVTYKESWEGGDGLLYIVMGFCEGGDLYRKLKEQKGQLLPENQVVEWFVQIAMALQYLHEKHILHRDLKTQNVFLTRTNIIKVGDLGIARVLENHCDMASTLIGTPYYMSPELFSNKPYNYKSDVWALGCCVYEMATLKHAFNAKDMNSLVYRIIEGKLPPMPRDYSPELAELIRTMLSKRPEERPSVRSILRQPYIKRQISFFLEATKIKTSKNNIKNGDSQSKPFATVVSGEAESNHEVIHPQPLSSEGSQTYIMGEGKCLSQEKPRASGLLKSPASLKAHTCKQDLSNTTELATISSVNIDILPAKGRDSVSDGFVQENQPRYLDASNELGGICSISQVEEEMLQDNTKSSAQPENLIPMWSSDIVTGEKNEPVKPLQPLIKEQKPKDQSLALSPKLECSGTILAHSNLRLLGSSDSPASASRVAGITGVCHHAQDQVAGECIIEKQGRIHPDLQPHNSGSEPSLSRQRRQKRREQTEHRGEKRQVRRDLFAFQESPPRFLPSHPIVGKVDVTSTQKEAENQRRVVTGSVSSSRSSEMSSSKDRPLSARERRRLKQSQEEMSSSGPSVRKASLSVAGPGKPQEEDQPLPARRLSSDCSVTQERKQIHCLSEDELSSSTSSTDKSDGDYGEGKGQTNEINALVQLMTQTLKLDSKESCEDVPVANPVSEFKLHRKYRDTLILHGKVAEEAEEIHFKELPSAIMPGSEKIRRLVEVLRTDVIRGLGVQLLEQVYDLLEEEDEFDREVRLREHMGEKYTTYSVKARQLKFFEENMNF

Ki [1]: > 2000 nM (inactive)
Ki [2]: 3160 nM (active)
Ki [3]: 100 nM (active)
Ki [4]: 251 nM (active)
Ki [5]: 10 nM (active)
Ki [6]: > 2000 nM (inactive)
Ki [7]: > 1580 nM (inactive)
Ki [8]: 501 nM (active)
Ki (Ephrin type-A receptor 2): > 3160 nM (inactive)
Ki [9]: 79.4 nM (active)
Ki [10]: 3980 nM (active)
Ki [11]: > 398 nM (inactive)
Ki [12]: 158 nM (active)
Ki [13]: > 1580 nM (inactive)
Ki [14]: 126 nM (active)
Ki [15]: > 7940 nM (inactive)
Ki [16]: 158 nM (active)
Ki [17]: > 1580 nM (inactive)
Ki [18]: > 3160 nM (inactive)
Ki [19]: 15.8 nM (active)
Ki [20]: 794 nM (active)
Ki [21]: 3160 nM (active)
Ki [22]: 6.31 nM (active)
Ki [23]: 25.1 nM (active)
Ki [24]: 39.8 nM (active)
Ki [25]: > 10000 nM (inactive)
Ki [26]: 31.6 nM (active)
Ki [27]: 5010 nM (active)
Ki [28]: 251 nM (active)
Ki [30]: 100 nM (active)
Ki [31]: 3160 nM (active)
Ki [32]: > 3980 nM (inactive)
Ki [33]: 158 nM (active)
Ki [34]: > 1260 nM (inactive)
Ki [35]: 39.8 nM (active)
Ki [36]: 1580 nM (active)
Ki [37]: 3160 nM (active)
Ki [38]: 316 nM (active)
Ki [39]: 100 nM (active)
Ki [40]: > 2000 nM (inactive)
Ki [41]: 631 nM (active)
Ki [42]: > 1580 nM (inactive)
Ki [43]: 794 nM (active)
Ki [44]: 63.1 nM (active)
Ki [45]: 631 nM (active)
SMILES: NC1CCCCC1Nc1nccc(-c2c[nH]c3ncccc23)n1 (stereo unspecified)
Ki [29]: 631 nM (active)
